Test results taken from PubChem BioAssay AID328 (DTP/NCI, 2004).
Several values for one entry are separate records, joined by “and”; a condition that tells them apart may be missing. Equal values may be shown once. Inconclusive results and toxic doses are left out.

System: BDF1 mice, P388 leukemia ip, median survival T/C
Assay: NCI In Vivo Anticancer Drug Screen. Data for tumor model P388 Leukemia (intraperitoneal) in B6D2F1 (BDF1) mice
Conditions: endpoint: median survival time, higher = longer survival
In short: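 Transplantable tumour in mice; compound vs vehicle dosing; survival scored; ratio of treated to control reported.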

[1] = dose: 50.0 mg/kg/injection, schedule: Q01DX009 (ip), vehicle: saline with Tween-80
[2] = dose: 100.0 mg/kg/injection, schedule: Q01DX009 (ip), vehicle: saline with Tween-80
[3] = dose: 200.0 mg/kg/injection, schedule: Q01DX009 (ip), vehicle: saline with Tween-80
[4] = dose: 100.0 mg/kg/injection, schedule: Q04DX003 (ip), vehicle: saline with Tween-80
[5] = dose: 200.0 mg/kg/injection, schedule: Q04DX003 (ip), vehicle: saline with Tween-80
[6] = dose: 400.0 mg/kg/injection, schedule: Q04DX003 (ip), vehicle: saline with Tween-80
[7] = dose: 25.0 mg/kg/injection, schedule: Q01DX009 (ip), vehicle: saline with Tween-80
[8] = dose: 50.0 mg/kg/injection, schedule: Q04DX003 (ip), vehicle: saline with Tween-80
[9] = dose: 100.0 mg/kg/injection, schedule: Q01DX001 (ip), vehicle: Klucel (hydroxypropylcellulose) (HPC)
[10] = dose: 200.0 mg/kg/injection, schedule: Q01DX001 (ip), vehicle: Klucel (hydroxypropylcellulose) (HPC)
[11] = dose: 400.0 mg/kg/injection, schedule: Q01DX001 (ip), vehicle: Klucel (hydroxypropylcellulose) (HPC)
[12] = dose: 50.0 mg/kg/injection, schedule: Q01DX001 (ip), vehicle: Klucel (hydroxypropylcellulose) (HPC)
[13] = dose: 100.0 mg/kg/injection, schedule: Q04DX003 (ip), vehicle: saline
[14] = dose: 200.0 mg/kg/injection, schedule: Q04DX003 (ip), vehicle: saline

In the case of `N/C(=N\O)c1cn(C2OC(CO)C(O)C2O)c2ncnc(N)c12` (stereo not given), the T/C (dose: 0.6 mg/kg/injection, schedule: Q01DX009 (ip), vehicle: Klucel (hydroxypropylcellulose) (HPC)) is reported as 150 % of control, the T/C (dose: 1.25 mg/kg/injection, schedule: Q01DX009 (ip), vehicle: Klucel (hydroxypropylcellulose) (HPC)) is reported as 168 % of control and the T/C (dose: 2.5 mg/kg/injection, schedule: Q01DX009 (ip), vehicle: Klucel (hydroxypropylcellulose) (HPC)) is reported as 154 % of control. For the same compound, the T/C (dose: 5.0 mg/kg/injection, schedule: Q01DX009 (ip), vehicle: Klucel (hydroxypropylcellulose) (HPC)) was 172 % of control.

`CC1(C)CC(=O)C2=C(C1)OC1=C(C(=O)CC(C)(C)C1)C2c1cccc([N+](=O)[O-])c1` was tested, and the T/C [1] was 104 % of control, the T/C [2] was 123 % of control and the T/C [3] was 106 % of control.

In the case of `N#CC1C=Cc2ccccc2N1C(=O)Oc1ccccc1` (stereo not given), the T/C [1] is reported as 110 % of control, the T/C (dose: 100.0 mg/kg/injection, schedule: Q01DX001 (ip), vehicle: other) is reported as 100 % of control and the T/C [2] is reported as 100 % of control. For the same compound, the T/C [4] was 95 % of control, the T/C (dose: 200.0 mg/kg/injection, schedule: Q01DX001 (ip), vehicle: other) was 109 % of control and the T/C [3] was 110 % of control. For the same compound, the T/C [5] was 100 % of control, the T/C (dose: 400.0 mg/kg/injection, schedule: Q01DX001 (ip), vehicle: other) was 90 % of control and the T/C [6] was 113 % of control.

`Cc1cc2c(c3ncccc13)OCN(Cc1ccc(Cl)cc1)C2` was tested, and the T/C (dose: 12.5 mg/kg/injection, schedule: Q01DX009 (ip), vehicle: saline with Tween-80) was 104 % of control, the T/C [7] was 100 % of control and the T/C [1] was 91 % of control.

`C[C@]12CCCC[C@@H]1CC[C@@H]1[C@@H]2[C@@H](O)C[C@]2(C)[C@@H](O)CC[C@@H]12` was tested, and the T/C [1] was 95 % of control and 100 % of control, the T/C [8] was 100 % of control and the T/C (dose: 66.0 mg/kg/injection, schedule: Q04DX003 (ip), vehicle: saline with Tween-80) was 95 % of control. The T/C [2] was 95 % of control and 100 % of control, the T/C [4] was 122 % of control and the T/C (dose: 150.0 mg/kg/injection, schedule: Q04DX003 (ip), vehicle: saline with Tween-80) was 90 % of control. For the same compound, the T/C [3] was 90 % of control and 100 % of control and the T/C [5] was 100 % of control.

In the case of `COc1ccc(C(=O)C(C)C(O)(C(F)(F)F)C(F)(F)F)cc1` (stereo not given), the T/C [9] is reported as 109 % of control, the T/C [10] is reported as 109 % of control and the T/C [11] is reported as 109 % of control.

For `CC1=NN(c2ccccc2)C(=O)C1=Nc1c(C)[nH]n(-c2ccccc2)c1=O`, the T/C (dose: 30.0 mg/kg/injection, schedule: Q01DX009 (ip), vehicle: saline with Tween-80) was 96 % of control and the T/C (dose: 60.0 mg/kg/injection, schedule: Q01DX009 (ip), vehicle: saline with Tween-80) was 91 % of control.

With `O=C(O)c1ccc(Cl)cc1Nc1ccc(Cl)cc1` the T/C (dose: 25.0 mg/kg/injection, schedule: Q04DX003 (ip), vehicle: saline with Tween-80) was 120 % of control, the T/C [8] was 100 % of control and the T/C [4] was 100 % of control.

For `O=C(CBr)NCC1OC(n2cnc3c(=O)[nH]cnc32)C(O)C1O` (stereo not given), the T/C [12] was 109 % of control, the T/C [9] was 101 % of control and the T/C [10] was 106 % of control.

In the case of `CCOc1ccc2nc3cc(N)ccc3c(N)c2c1`, the T/C (dose: 44.0 mg/kg/injection, schedule: Q04DX003 (ip), vehicle: saline) is reported as 118 % of control, the T/C (dose: 66.0 mg/kg/injection, schedule: Q04DX003 (ip), vehicle: saline) is reported as 118 % of control and the T/C [13] is reported as 118 % of control. For the same compound, the T/C [14] was 117 % of control and the T/C (dose: 400.0 mg/kg/injection, schedule: Q04DX003 (ip), vehicle: saline) was 86 % of control.

For `ClCCOCCCl`, the T/C [1] was 115 % of control and the T/C [2] was 124 % of control.

For `Oc1c(-c2ccccc2)cc(-[n+]2c(-c3ccccc3)cc(-c3ccc(-c4ccccc4)cc3)cc2-c2ccccc2)cc1-c1ccccc1`, the T/C (dose: 25.0 mg/kg/injection, schedule: Q01DX001 (ip), vehicle: saline with Tween-80) was 107 % of control, the T/C (dose: 50.0 mg/kg/injection, schedule: Q01DX001 (ip), vehicle: saline with Tween-80) was 98 % of control and the T/C (dose: 100.0 mg/kg/injection, schedule: Q01DX001 (ip), vehicle: saline with Tween-80) was 102 % of control.

In the case of `CCCCn1cnc2c(SC)ncnc21`, the T/C (dose: 22.0 mg/kg/injection, schedule: Q04DX003 (ip), vehicle: saline) is reported as 100 % of control, the T/C (dose: 33.0 mg/kg/injection, schedule: Q04DX003 (ip), vehicle: saline) is reported as 104 % of control and the T/C (dose: 50.0 mg/kg/injection, schedule: Q01DX009 (ip), vehicle: saline) is reported as 95 % of control. The T/C (dose: 50.0 mg/kg/injection, schedule: Q04DX003 (ip), vehicle: saline) was 104 % of control, the T/C (dose: 75.0 mg/kg/injection, schedule: Q04DX003 (ip), vehicle: saline) was 113 % of control and the T/C (dose: 100.0 mg/kg/injection, schedule: Q01DX009 (ip), vehicle: saline) was 100 % of control. The T/C [13] was 104 % of control, the T/C (dose: 200.0 mg/kg/injection, schedule: Q01DX009 (ip), vehicle: saline) was 104 % of control and the T/C [14] was 90 % of control.

For `O=c1[nH]cn[nH]1`, the T/C (dose: 100.0 mg/kg/injection, schedule: Q01DX001 (ip), vehicle: saline sonified) was 122 % of control, the T/C (dose: 200.0 mg/kg/injection, schedule: Q01DX001 (ip), vehicle: saline sonified) was 95 % of control and the T/C (dose: 400.0 mg/kg/injection, schedule: Q01DX001 (ip), vehicle: saline sonified) was 90 % of control.

`O=[N+]([O-])c1cccc(Oc2ncccc2[N+](=O)[O-])c1` was tested, and the T/C (dose: 65.0 mg/kg/injection, schedule: Q04DX003 (ip), vehicle: Klucel (hydroxypropylcellulose) (HPC)) was 118 % of control, the T/C (dose: 100.0 mg/kg/injection, schedule: Q04DX003 (ip), vehicle: Klucel (hydroxypropylcellulose) (HPC)) was 109 % of control and the T/C (dose: 150.0 mg/kg/injection, schedule: Q04DX003 (ip), vehicle: Klucel (hydroxypropylcellulose) (HPC)) was 109 % of control. The T/C (dose: 200.0 mg/kg/injection, schedule: Q04DX003 (ip), vehicle: Klucel (hydroxypropylcellulose) (HPC)) was 105 % of control and the T/C (dose: 400.0 mg/kg/injection, schedule: Q04DX003 (ip), vehicle: Klucel (hydroxypropylcellulose) (HPC)) was 115 % of control.

For `Cc1c(Cl)cccc1N1C(=O)CC(Sc2ccccc2N)C1=O` (stereo not given), the T/C [2] was 110 % of control, the T/C [4] was 95 % of control and the T/C [3] was 105 % of control. The T/C [5] was 104 % of control, the T/C (dose: 400.0 mg/kg/injection, schedule: Q01DX009 (ip), vehicle: saline with Tween-80) was 105 % of control and the T/C [6] was 109 % of control.

In the case of `COC(=O)c1c(Cl)c(Cl)c(C(=O)OC)c(Cl)c1Cl`, the T/C [7] is reported as 100 % of control, the T/C [1] is reported as 100 % of control and the T/C [2] is reported as 86 % of control. The T/C [4] was 91 % of control, the T/C [5] was 108 % of control and the T/C (dose: 266.0 mg/kg/injection, schedule: Q04DX003 (ip), vehicle: saline with Tween-80) was 95 % of control. For the same compound, the T/C [6] was 90 % of control and the T/C (dose: 600.0 mg/kg/injection, schedule: Q04DX003 (ip), vehicle: saline with Tween-80) was 100 % of control.

For `NC1=C(Cl)C(=O)C(Cl)=C(Cl)C1=O`, the T/C (dose: 0.39 mg/kg/injection, schedule: Q01DX009 (ip), vehicle: saline) was 102 % of control, the T/C (dose: 0.78 mg/kg/injection, schedule: Q01DX009 (ip), vehicle: saline) was 98 % of control and the T/C (dose: 1.56 mg/kg/injection, schedule: Q01DX009 (ip), vehicle: saline) was 99 % of control.

With `CC(C)CCCCCCCCOC(=O)c1ccccc1C(=O)OCCCCCCCCC(C)C` the T/C [4] was 109 % of control, the T/C [5] was 109 % of control and the T/C [6] was 104 % of control.

In the case of `Cc1nc(Cl)c2c(n1)Oc1nc(C)nc(Cl)c1C2c1ccc(Cl)cc1`, the T/C [9] is reported as 88 % of control and 100 % of control, the T/C [10] is reported as 95 % of control and the T/C [11] is reported as 88 % of control and 90 % of control.

With `CC(=O)CC(C)=O.CC(=O)CC(C)=O.[CH3][Sn][CH3]` the T/C (dose: 25.0 mg/kg/injection, schedule: Q01DX001 (ip), vehicle: Klucel (hydroxypropylcellulose) (HPC)) was 111 % of control and the T/C [12] was 119 % of control.
